Assay results as given in patent publication US20240239812A1, “MACROCYCLIC 2-ALLYLTETRAHYDROFURANS AS INHIBITORS OF MCL-1” (JANSSEN PHARMACEUTICA NV, priority 2021, published 2024).
Like-named read-outs stand apart in the source and are kept apart here.

Experiments:
[1] = target: Myeloid Cell Leukemia 1 (Mcl-1) (Homo sapiens (Human), UniProt Q07820); assay: Terbium labeled Mcl-1 HTRF binding assay, displacement of Cy5-labeled BIM BH3 peptide; settings: 25 pM Tb-Mcl-1, 8 nM Cy5 Bim peptide, 60 minutes at room temperature, read-out: Tb-MCL1 Ki
Sequence of Myeloid Cell Leukemia 1 (Mcl-1) (Q07820 whole entry): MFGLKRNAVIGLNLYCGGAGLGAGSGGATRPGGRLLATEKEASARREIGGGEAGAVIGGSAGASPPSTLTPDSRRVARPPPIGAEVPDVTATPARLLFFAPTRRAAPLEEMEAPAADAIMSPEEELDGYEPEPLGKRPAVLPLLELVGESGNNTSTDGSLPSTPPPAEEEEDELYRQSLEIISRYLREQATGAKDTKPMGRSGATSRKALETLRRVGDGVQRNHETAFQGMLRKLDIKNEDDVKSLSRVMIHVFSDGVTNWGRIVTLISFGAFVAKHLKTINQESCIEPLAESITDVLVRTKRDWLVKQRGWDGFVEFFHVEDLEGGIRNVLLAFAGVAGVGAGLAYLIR
Experimental: Terbium labeled Myeloid Cell Leukemia 1 (Mcl-1) homogeneous time-resolved fluorescence (HTRF) binding assay utilizing the BIM BH3 peptide (H2N—(C/Cy5Mal) WIAQELRRIGDEFN-OH) as the binding partner for Mcl-1.
This assay evaluated inhibition of the BH3 domain: Mcl-1 interaction by measuring the displacement of Cy5-labeled BIM BH3 peptide (H2N—(C/Cy5Mal) WIAQELRRIGDEFN-OH) in the HTRF assay format.
The following assay and stock buffers were prepared for use in the assay: (a) Stock buffer: 10 mM Tris-HCl, pH=7.5+150 mM NaCl, filtered, sterilized, and stored at 4° C.; and (b) 1× assay buffer, where the following ingredients were added fresh to stock buffer: 2 mM dithiothreitol (DTT), 0.0025% Tween-20, 0.1 mg/mL bovine serum albumin (BSA). The 1×Tb-Mcl-1+Cy5 Bim peptide solution was prepared by diluting the protein stock solution using the 1× assay buffer (b) to 25 pM Tb-Mcl-1 and 8 nM Cy5 Bim peptide.
Using the Acoustic ECHO, 100 nL of 100× test compound(s) were dispensed into individual wells of a white 384-well Perkin Elmer Proxiplate, for a final compound concentration of 1× and final DMSO concentration of 1%. Inhibitor control and neutral control (NC, 100 nL of 100% DMSO) were stamped into columns 23 and 24 of assay plate, respectively. Into each well of the plate was then dispensed 10 μL of the 1×Tb-Mcl-1+Cy5 Bim peptide solution. The plate was centrifuged with a cover plate at 1000 rpm for 1 minute, then incubated for 60 minutes at room temperature with plates covered.
The TR-FRET signal was read on an BMG PHERAStar FSX MicroPlate Reader at room temperature using the HTRF optic module (HTRF: excitation: 337 nm, light source: laser, emission A: 665 nm, emission B: 620 nm, integration start: 60 μs, integration time: 400 μs).
The BMG PHERAStar FSX MicroPlate Reader was used to measure fluorescence intensity at two emission wavelengths—665 nm and 620 nm—and report relative fluorescence units (RFU) for both emissions, as well as a ratio of the emissions (665 nm/620 nm)*10,000. The RFU values were normalized to percent inhibition as follows:
% inhibition(((NC−IC)−(compound−IC))/(NC−IC))*100
where IC (inhibitor control, low signal)=mean signal of 1× Tb-MCl-1+Cy5 Bim peptide+inhibitor control or 100% inhibition of Mcl-1; NC (neutral control, high signal)=mean signal 1×Tb-MCl-1+Cy5 Bim peptide with DMSO only or 0% inhibition
An 11-point dose response curve was generated to determine IC50 values (using GenData) based on the following equation:
where Y=% inhibition in the presence of X inhibitor concentration; Top=100% inhibition derived from the IC (mean signal of Mcl-1+inhibitor control); Bottom=0% inhibition derived from the NC (mean signal of Mcl-1+DMSO); Hillslope=Hill coefficient; and IC50=concentration of compound with 50% inhibition in relation to top/neutral control (NC).
Representative compounds of the present invention were tested according to the procedure as described above, with results as listed in the Table below (n.d. means not determined).

[2] = system: MOLP-8 human multiple myeloma cell line; assay: Caspase-Glo 3/7 apoptosis induction assay in MOLP-8 cells; format: cell-based; settings: caspase-3/7 activity, 2 hours at 37° C., averaged over all runs on all batches, read-out: MOLP8 AC50
From the text: MCL-1 is a regulator of apoptosis and is highly over-expressed in tumor cells that escape cell death. The assay evaluates the cellular potency of small-molecule compounds targeting regulators of the apoptosis pathway, primarily MCL-1, Bfl-1, Bcl-2, and other proteins of the Bcl-2 family. Protein-protein inhibitors disrupting the interaction of anti-apoptotic regulators with BH3-domain proteins initiate apoptosis.
The Caspase-Glo® 3/7 Assay is a luminescent assay that measures caspase-3 and -7 activities in purified enzyme preparations or cultures of adherent or suspension cells. The assay provides a proluminescent caspase-3/7 substrate, which contains the tetrapeptide sequence DEVD. This substrate is cleaved to release aminoluciferin, a substrate of luciferase used in the production of light. Addition of the single Caspase-Glo® 3/7 Reagent in an “add-mix-measure” format results in cell lysis, followed by caspase cleavage of the substrate and generation of a “glow-type” luminescent signal.
This assay uses the MOLP-8 human multiple myeloma cell line, which is sensitive to MCL-1 inhibition.
Cell cultures were maintained between 0.2 and 2.0×10^6 cells/mL. The cells were harvested by collection in 50 mL conical tubes. The cells were then pelleted at 500 g for 5 mins before removing supernatant and resuspension in fresh pre-warmed culture medium. The cells were counted and diluted as needed.
The assay reagent was prepared by transferring the buffer solution to the substrate vial and mixing. The solution may be stored for up to 1 week at 4° C. with negligible loss of signal.
Compounds were delivered in assay-ready plates (Proxiplate) and stored at −20° C.
Assays always include 1 reference compound plate containing reference compounds. The plates were spotted with 40 nL of compounds (0.5% DMSO final in cells; serial dilution; 30 μM highest conc. 1/3 dilution, 10 doses, duplicates). The compounds were used at room temperature and 4 μL of pre-warmed media was added to all wells except column 2 and 23. The negative control was prepared by adding 1% DMSO in media. The positive control was prepared by adding the appropriate positive control compound in final concentration of 60 μM in media. The plate was prepared by adding 4 μL negative control to column 23, 4 μL positive control to column 2, and 4 μL cell suspension to all wells in the plate. The plate with cells was then incubated at 37° C. for 2 hours. The assay signal reagent is the Caspase-Glo solution described above, and 8 μL was added to all wells. The plates were then sealed and measured after 30 minutes.
The activity of a test compound was calculated as percent change in apoptosis induction as follows: […]

Row | SMILES | Ki [1] [nM] | AC50 [2] [nM] | AC50 ([2]; Homo sapiens, MOLP-8, 2 h) [nM]
1 | C[C@@H]1[C@@H](C)C/C=C(\F)C(OCCN2CCOCC2)[C@@H]2OCC[C@H]2CN2C[C@@]3(CCCc4cc(Cl)ccc43)COc3ccc(cc32)C(=O)NS1(=O)=O (single isomer, unassigned) [Compound 4] | 0.192 | 314 | –
2 | C[C@@H]1[C@@H](C)C/C=C(\F)C(OCCN2CCOCC2)[C@@H]2OCC[C@H]2CN2C[C@@]3(CCCc4cc(Cl)ccc43)COc3ccc(cc32)C(=O)NS1(=O)=O (single isomer, unassigned) [Compound 5] | 0.445 | 1100 | –
3 | COc1nn(C)cc1C(=O)NS1(=O)=NC(=O)c2ccc3c(c2)N(C[C@@H]2CCO[C@H]2C(OC)/C=C/C[C@H](C)C1)C[C@@]1(CCCc2cc(Cl)ccc21)CO3 (single isomer, unassigned) [Compound 8] | 0.0231 | 34 | –
4 | COc1nn(C)cc1C(=O)NS1(=O)=NC(=O)c2ccc3c(c2)N(C[C@@H]2CCO[C@H]2C(OC)/C=C/C[C@H](C)C1)C[C@@]1(CCCc2cc(Cl)ccc21)CO3 (single isomer, unassigned) [Compound 9] | 0.05 | 119 | –
5 | COc1nn(C)cc1C(=O)NS1(=O)=NC(=O)c2ccc3c(c2)N(C[C@@H]2CCO[C@H]2C(OC)/C=C/C[C@H](C)C1)C[C@@]1(CCCc2cc(Cl)ccc21)CO3 (single isomer, unassigned) [Compound 10] | 0.401 | 453 | –
6 | COc1nn(C)cc1C(=O)NS1(=O)=NC(=O)c2ccc3c(c2)N(C[C@@H]2CCO[C@H]2C(OC)/C=C/C[C@H](C)C1)C[C@@]1(CCCc2cc(Cl)ccc21)CO3 (single isomer, unassigned) [Compound 11] | 0.94 | 1310 | –
7 | COC1/C(F)=C/C[C@H](C)[C@@H](C)S(=O)(=O)NC(=O)c2cnc3c(n2)N(C[C@@H]2CCO[C@@H]12)C[C@@]1(CCCc2cc(Cl)ccc21)CO3 (single isomer, unassigned) [Compound 12] | 5.23 | 1220 | –
8 | COC1/C(F)=C/C[C@H](C)[C@@H](C)S(=O)(=O)NC(=O)c2cnc3c(n2)N(C[C@@H]2CCO[C@@H]12)C[C@@]1(CCCc2cc(Cl)ccc21)CO3 (single isomer, unassigned) [Compound 13] | 35.5 | 15200 | –
9 | C[C@@H]1[C@@H](C)C/C=C/C(CO)[C@@H]2OCC[C@H]2CN2C[C@@]3(CCCc4cc(Cl)ccc43)COc3ccc(cc32)C(=O)NS1(=O)=O (single isomer, unassigned) [Compound 14] | 0.521 | 1250 | –
10 | C[C@@H]1[C@@H](C)C/C=C/C(CO)[C@@H]2OCC[C@H]2CN2C[C@@]3(CCCc4cc(Cl)ccc43)COc3ccc(cc32)C(=O)NS1(=O)=O (single isomer, unassigned) [Compound 15] | 0.636 | 2920 | –
11 | COCCN(CCOC)CC1(OC)/C(F)=C/C[C@H](C)[C@@H](C)S(=O)(=O)NC(=O)c2ccc3c(c2)N(C[C@@H]2CCO[C@H]21)C[C@@]1(CCCc2cc(Cl)ccc21)CO3 (single isomer, unassigned) [Compound 18] | 0.096 | – | 412
12 | C[C@@H]1[C@@H](C)C/C=C/C(O)[C@@H]2OCC[C@H]2CN2C[C@@]3(CCCc4cc(Cl)ccc43)COc3ccc(cc32)C(=O)NS1(=O)=O (single isomer, unassigned) [Compound 19] | 0.717 | – | 752
13 | C[C@@H]1[C@@H](C)C/C=C/C(OCCN2CCOCC2)[C@@H]2OCC[C@H]2CN2C[C@@]3(CCCc4cc(Cl)ccc43)COc3ccc(cc32)C(=O)NS1(=O)=O (single isomer, unassigned) [Compound 20] | 0.223 | – | 616
14 | C[C@@H]1[C@@H](C)C/C=C(\F)C(O)(CC(=O)N(C)C)[C@@H]2OCC[C@H]2CN2C[C@@]3(CCCc4cc(Cl)ccc43)COc3ccc(cc32)C(=O)NS1(=O)=O (single isomer, unassigned) [Compound 21] | 0.182 | 436 | –
15 | C[C@@H]1[C@@H](C)C/C=C(\F)C(O)(CC(=O)N(C)C)[C@@H]2OCC[C@H]2CN2C[C@@]3(CCCc4cc(Cl)ccc43)COc3ccc(cc32)C(=O)NS1(=O)=O (single isomer, unassigned) [Compound 22] | 0.981 | 4830 | –
16 | COc1nn(C)cc1C(=O)NS1(=O)=NC(=O)c2ccc3c(c2)N(C[C@@H]2CCO[C@H]2C(OC)/C(F)=C/C[C@H](C)C1)C[C@@]1(CCCc2cc(Cl)ccc21)CO3 (single isomer, unassigned) [Compound 23] | 0.25 | 2420 | –
17 | COc1nn(C)cc1C(=O)NS1(=O)=NC(=O)c2ccc3c(c2)N(C[C@@H]2CCO[C@H]2C(OC)/C(F)=C/C[C@H](C)C1)C[C@@]1(CCCc2cc(Cl)ccc21)CO3 (single isomer, unassigned) [Compound 24] | 0.011 | 44 | –
18 | COc1nn(C)cc1C(=O)NS1(=O)=NC(=O)c2ccc3c(c2)N(C[C@@H]2CCO[C@H]2C(OC)/C(F)=C/C[C@H](C)C1)C[C@@]1(CCCc2cc(Cl)ccc21)CO3 (single isomer, unassigned) [Compound 25] | 0.025 | 486 | –
19 | COc1nn(C)cc1C(=O)NS1(=O)=NC(=O)c2ccc3c(c2)N(C[C@@H]2CCO[C@H]2C(OC)/C(F)=C/C[C@H](C)C1)C[C@@]1(CCCc2cc(Cl)ccc21)CO3 (single isomer, unassigned) [Compound 26] | 5.12 | > 5000 | –
20 | COc1nn(C)cc1C(=O)NS1(=O)=NC(=O)c2ccc3c(c2)N(C[C@@H]2CCO[C@H]2C(CN2CCN4CCOC[C@@H]4C2)(OC)/C(F)=C/C[C@H](C)C1)C[C@@]1(CCCc2cc(Cl)ccc21)CO3 (single isomer, unassigned) [Compound 27] | 0.048 | 424 | –
21 | CO[C@@]1(CN2CCN3CCOC[C@@H]3C2)/C(F)=C/C[C@H](C)[C@@H](C)S(=O)(=O)NC(=O)c2ccc3c(c2)N(C[C@@H]2CCO[C@H]21)C[C@@]1(CCCc2cc(Cl)ccc21)CO3 [Compound 6] | – | – | 69
22 | CO[C@]1(CN2CCN3CCOC[C@@H]3C2)/C(F)=C/C[C@H](C)[C@@H](C)S(=O)(=O)NC(=O)c2ccc3c(c2)N(C[C@@H]2CCO[C@H]21)C[C@@]1(CCCc2cc(Cl)ccc21)CO3 [Compound 7] | – | – | 88
